One test addresses T1, OPRD1 (Homo sapiens, UniProt P41143).
T1 construct: Pharmaron (Beijing, China), contract laboratory
Put plainly: GPCR calcium flux assay. The test is classed as cell-based. The note with it: read-out: Known agonists EC50. A general note: Calcium assays in cells follow changes in intracellular calcium, usually with a dye or a luminescent sensor.

Another test addresses CB2 (Homo sapiens, UniProt P34972). In words: LANCE Ultra cAMP assay. The note with it: read-out: IC50 (known antagonists, TP-16); CB2. A general note: TR-FRET usually uses a lanthanide donor and a delayed reading to cut background.
For the next test, the target named is HTR1B (Homo sapiens, UniProt P28222). In words: LANCE Ultra cAMP assay.
The next test deals with T2, BB1 (Homo sapiens, UniProt P28336).
T2 construct: Pharmaron (Beijing, China), contract laboratory
In words: GPCR calcium flux assay. It is filed as cell-based. The note with it: read-out: Known agonists EC50.

Another test has as its target T3, HTR2B (Homo sapiens, UniProt P41595).
T3 construct: Pharmaron (Beijing, China), contract laboratory
Put plainly: GPCR calcium flux assay. The test is classed as cell-based.

A further test addresses T4, AT1 (Homo sapiens, UniProt P30556).
T4 construct: Pharmaron (Beijing, China), contract laboratory
In words: GPCR calcium flux assay. It is filed as cell-based. The note with it: read-out: Known agonists EC50.

pEC50, pIC50: −log10 of the molar value. Structures can show the parent of a compound that is named as a salt. Where no end group is shown, it is not given here.

HTR1B, sequence (P28222 whole entry): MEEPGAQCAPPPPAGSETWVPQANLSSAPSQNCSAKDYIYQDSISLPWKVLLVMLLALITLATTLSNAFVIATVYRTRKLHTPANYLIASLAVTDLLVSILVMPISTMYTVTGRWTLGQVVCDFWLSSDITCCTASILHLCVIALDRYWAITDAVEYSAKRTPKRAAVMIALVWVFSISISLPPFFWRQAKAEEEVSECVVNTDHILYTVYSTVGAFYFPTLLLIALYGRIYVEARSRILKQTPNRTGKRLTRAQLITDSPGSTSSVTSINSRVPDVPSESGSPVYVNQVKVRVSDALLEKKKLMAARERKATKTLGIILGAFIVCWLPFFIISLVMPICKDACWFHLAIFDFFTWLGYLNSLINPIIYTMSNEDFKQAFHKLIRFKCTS
T1 sequence (P41143 whole entry, species assumed): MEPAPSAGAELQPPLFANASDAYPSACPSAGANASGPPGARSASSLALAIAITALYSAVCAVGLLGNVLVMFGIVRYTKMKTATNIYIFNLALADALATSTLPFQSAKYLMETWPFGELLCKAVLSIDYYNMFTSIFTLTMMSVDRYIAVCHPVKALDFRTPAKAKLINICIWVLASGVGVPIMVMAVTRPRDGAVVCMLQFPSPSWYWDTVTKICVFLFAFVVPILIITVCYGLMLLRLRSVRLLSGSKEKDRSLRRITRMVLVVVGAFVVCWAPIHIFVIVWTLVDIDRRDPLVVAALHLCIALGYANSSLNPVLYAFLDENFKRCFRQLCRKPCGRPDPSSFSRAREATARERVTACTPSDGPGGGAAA
T4 sequence (P30556 whole entry): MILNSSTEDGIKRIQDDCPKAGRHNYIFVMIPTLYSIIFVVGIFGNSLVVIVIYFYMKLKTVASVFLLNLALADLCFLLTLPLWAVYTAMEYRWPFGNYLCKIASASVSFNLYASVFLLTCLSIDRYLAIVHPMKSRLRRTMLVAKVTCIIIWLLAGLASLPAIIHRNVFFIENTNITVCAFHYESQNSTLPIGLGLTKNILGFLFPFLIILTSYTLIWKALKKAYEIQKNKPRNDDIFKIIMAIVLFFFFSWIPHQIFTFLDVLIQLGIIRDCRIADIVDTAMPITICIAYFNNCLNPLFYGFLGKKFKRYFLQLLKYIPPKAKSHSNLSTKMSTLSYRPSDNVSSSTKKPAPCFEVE
T2 sequence (P28336 whole entry): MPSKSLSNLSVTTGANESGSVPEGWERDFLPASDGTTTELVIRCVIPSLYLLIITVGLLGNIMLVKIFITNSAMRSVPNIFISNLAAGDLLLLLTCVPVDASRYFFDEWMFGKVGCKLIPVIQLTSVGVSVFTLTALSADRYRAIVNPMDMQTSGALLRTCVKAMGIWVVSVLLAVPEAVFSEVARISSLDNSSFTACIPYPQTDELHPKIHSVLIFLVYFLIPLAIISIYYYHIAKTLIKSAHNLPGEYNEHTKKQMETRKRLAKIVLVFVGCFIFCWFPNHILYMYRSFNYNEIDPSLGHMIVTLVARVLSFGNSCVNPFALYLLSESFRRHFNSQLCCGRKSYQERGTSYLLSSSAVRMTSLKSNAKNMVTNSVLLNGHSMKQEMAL
T3 sequence (P41595 whole entry, species assumed): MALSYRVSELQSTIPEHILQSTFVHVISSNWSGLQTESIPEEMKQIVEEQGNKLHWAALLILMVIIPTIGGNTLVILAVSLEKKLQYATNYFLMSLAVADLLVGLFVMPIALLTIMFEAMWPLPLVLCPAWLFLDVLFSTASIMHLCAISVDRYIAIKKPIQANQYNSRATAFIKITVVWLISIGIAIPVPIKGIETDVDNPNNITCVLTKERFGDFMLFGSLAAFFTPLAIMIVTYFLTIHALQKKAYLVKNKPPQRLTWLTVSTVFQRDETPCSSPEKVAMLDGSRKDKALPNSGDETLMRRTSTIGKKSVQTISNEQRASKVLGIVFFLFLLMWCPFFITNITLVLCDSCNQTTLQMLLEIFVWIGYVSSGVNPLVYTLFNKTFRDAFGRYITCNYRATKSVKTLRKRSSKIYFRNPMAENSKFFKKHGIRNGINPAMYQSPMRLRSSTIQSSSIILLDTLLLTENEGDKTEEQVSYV
CB2, sequence (P34972 whole entry, species assumed): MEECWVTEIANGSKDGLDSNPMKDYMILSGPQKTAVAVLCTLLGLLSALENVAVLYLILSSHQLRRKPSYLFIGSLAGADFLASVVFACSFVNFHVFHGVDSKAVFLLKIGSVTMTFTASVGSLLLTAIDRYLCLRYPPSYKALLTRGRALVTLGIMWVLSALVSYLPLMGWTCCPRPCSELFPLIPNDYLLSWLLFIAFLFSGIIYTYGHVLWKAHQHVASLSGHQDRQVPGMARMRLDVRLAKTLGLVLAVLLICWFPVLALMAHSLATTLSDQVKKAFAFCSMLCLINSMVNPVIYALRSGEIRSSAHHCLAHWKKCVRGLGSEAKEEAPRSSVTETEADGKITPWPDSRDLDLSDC

As a reminder, the pEC50 is the negative decadic logarithm of the EC50, by convention in mol/L. As for `CCN(CC)C(=O)c1ccc(C2=CC3(CCNCC3)Oc3cccc(O)c32)cc1` [ADL-5859, reference compound], the pEC50 at OPRD1 is 6.57.

As usually defined, the pIC50 is −log10 of the IC50, conventionally taken in molar units. As to `COc1ccc(C(=O)c2c(C)n(CCN3CCOCC3)c3cc(I)ccc23)cc1` [AM630, reference compound], on CB2, the pIC50 was 6.59.

`CN(C)CCCc1cc(C(=O)Nc2ccc(-c3ccncc3)cc2)ccc1O` [GR 55562 dihydrochloride]: the pIC50 on HTR1B (read-out: IC50 (known antagonists, TP-16), HTR1B) is 7.46.

Consider `CSCC[C@H](NC(=O)[C@H](Cc1ccccc1)NC(=O)[C@H](Cc1c[nH]cn1)NC(=O)CNC(=O)[C@@H](NC(=O)[C@H](C)NC(=O)[C@H](Cc1c[nH]c2ccccc12)NC(=O)[C@H](CC(C)C)NC(=O)[C@H](CC(N)=O)NC(=O)CN)[C@@H](C)O)C(N)=O` [Neuromedin B, reference compound], for which the pEC50 at BB1 was 9.70.

In turn, `COc1ccc2[nH]cc(C3=CCNCC3)c2c1` [RU24969] showed a pEC50 on HTR1B of 7.74.

As for `Cc1nc2sccn2c(=O)c1CCN1CCC(=C(c2ccc(F)cc2)c2ccc(F)cc2)CC1` [Ritanserin, reference compound], the pIC50 on HTR2B was 7.51.

As to DRVYVHPF [Angiotensin II 5-valine], at AT1, the pEC50 was 9.70.

(Values after PMC7799360, “Reprogramming immunosuppressive myeloid cells facilitates immunotherapy for colorectal cancer” (EMBO Molecular Medicine, 2020).)
